The test system of experiment [1] is HEK-Blue IFNγ reporter cells, IFNγ-stimulated STAT1 SEAP reporter. Kind of experiment: HEK-Blue IFNγ reporter assay (SEAP) for determining selectivity. The class given is cell-based. The settings on record: Homo sapiens, 50 ng/mL human recombinant IFNγ, SEAP readout, read-out: IFN-γ (SEAP selectivity, IC50 class). The protocol: (§1) HEK-Blue™ IL-2 and IFNγ reporter cells with a stably-integrated cytokine receptor and STAT5 or STAT1 express STAT-inducible secreted embryonic alkaline phosphatase (SEAP) reporter gene upon cytokine stimulation. These cells were plated in DMEM (Gibco) containing 10% heat-inactivated FBS (Gibco) and 100 U/mL PenStrep (Gibco) at 37° C. under 5% CO2 conditions for 20-22 hours. The cells were then pretreated with serially diluted test compounds for 60 min prior to stimulation with either 4 ng/mL human recombinant IL-2 (Miltenyl Biotech) or 50 ng/mL human recombinant IFNγ (InvivoGen) for 24 hours. SEAP induction was measured using the QUANTI-Blue™ Solution (InvivoGen) according to the manufacturer's instructions.
A general note: A reporter such as luciferase makes a cellular process visible.

Experiment [2] relates to HEK-Blue IL-2 reporter cells, IL-2-stimulated STAT5 SEAP reporter. Description: HEK-Blue IL-2 reporter assay (SEAP) for determining selectivity. The format is cell-based. The settings on record: 4 ng/mL human recombinant IL-2, SEAP readout, read-out: IL-2 (SEAP selectivity, IC50 class). How it is done: as §1

Experimental findings from patent US12103937B2, “Substituted pyridines and pyridazines as TYK2 inhibitors” (Sudo Biosciences Limited, priority 2021, dated 2024) are described below.

The IC50 is the concentration needed to halve the response being measured. For `[2H]C([2H])([2H])NC(=O)c1nnc(NC(=O)C2CC2)cc1Nc1nccc2c1N(C)[C@@H](C)c1nc(C)nn1-2` [Compound 112, (S)-6-(cyclopropanecarboxamido)-N-(methyl-d3)-4-((2,4,5-trimethyl-4,5-dihydropyrido[3,4-e][1,2,4]triazolo[1,5-a]pyrazin-6-yl)amino)pyridazine-3-carboxamide], the IC50 in experiment [1] and in experiment [2] was above 1 µM throughout.
`[2H]C([2H])([2H])NC(=O)c1nnc(NC(=O)C2CC2)cc1Nc1nccc2c1N(C)[C@H](C([2H])([2H])[2H])c1nn(C)nc1-2` [Compound 114, (R)-6-(cyclopropanecarboxamido)-4-((2,5-dimethyl-4-(methyl-d3)-4,5-dihydro-2H-[1,2,3]triazolo[4,5-c][1,7]naphthyridin-6-yl)amino)-N-(methyl-d3)pyridazine-3-carboxamide]: the IC50 in experiment [2] is above 1 µM.
As for `[2H]C([2H])([2H])NC(=O)c1nnc(NC(=O)[C@H]2C[C@H]2F)cc1Nc1nccc2c1N(C)Cc1nn(C)nc1-2` [Compound 115, 4-((2,5-dimethyl-4,5-dihydro-2H-[1,2,3]triazolo[4,5-c][1,7]naphthyridin-6-yl)amino)-6-((1R,2R)-2-fluorocyclopropane-1-carboxamido)-N-(methyl-d3)pyridazine-3-carboxamide], the IC50 in experiment [1] was in the range of 0.03 to 0.3 µM; in experiment [2], 0.3 to 1 µM.
